Results taken from patent US10793568B2, “Hormone receptor modulators for treating metabolic conditions and disorders” (ARDELYX, INC., priority 2016, dated 2020).

Tests used:
[1] = molecular target: ligand binding domain of human FXR (Homo sapiens (Human), UniProt Q96RI1); assay: FXR ligand binding assay (LanthaScreen TR-FRET, SRC2-2 peptide recruitment); settings: for pEC50: -log EC50, concentration required to produce 50% activation; for Emax: extent of activation relative to GW4064, read-out: % Efficacy
[2] = molecular target: human Farnesoid X receptor ligand-binding domain/Gal4 DNA binding domain chimera (Homo sapiens (Human), UniProt Q96RI1); assay: Cell-based assay of FXR activation (FXR-UAS-bla HEK 293T beta-lactamase reporter); settings: cellular FXR beta-lactamase reporter assay; for Emax: HEK-293T, extent of activation relative to GW4064, read-out: % Efficacy; for EC50: FXR-UAS-bla HEK 293T cells, 16 h, pEC50 = -log EC50
In short: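 Readout is cleavage of the CCF4 FRET substrate (409 nm excitation, blue 447 nm signal) by beta-lactamase, expressed under UAS control after a Gal4–human FXR LBD chimera is activated in HEK 293T cells. Compounds were added as 3-fold dilutions for 16 h at 37 °C in 2% charcoal-stripped FBS medium. Curves were fit to a 3-parameter logistic equation to give pEC50, with % activation relative to GW4064.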

human Farnesoid X receptor ligand-binding domain/Gal4 DNA binding domain chimera, sequence (Q96RI1 262-486, change not shown): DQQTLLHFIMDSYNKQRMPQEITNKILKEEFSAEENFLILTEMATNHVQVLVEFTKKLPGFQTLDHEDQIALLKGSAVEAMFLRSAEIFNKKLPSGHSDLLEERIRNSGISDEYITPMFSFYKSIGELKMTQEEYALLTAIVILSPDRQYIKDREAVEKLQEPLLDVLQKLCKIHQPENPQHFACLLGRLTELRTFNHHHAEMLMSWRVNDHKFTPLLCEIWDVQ
human Farnesoid X receptor ligand-binding domain/Gal4 DNA binding domain chimera, sequence (P04386 1-147 partner): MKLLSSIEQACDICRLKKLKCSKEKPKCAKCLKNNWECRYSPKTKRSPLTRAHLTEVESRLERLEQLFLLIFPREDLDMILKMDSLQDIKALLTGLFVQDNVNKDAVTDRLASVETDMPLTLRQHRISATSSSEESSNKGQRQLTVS
ligand binding domain of human FXR, sequence (Q96RI1 262-486): as the sequence (Q96RI1 262-486, change not shown) above

SMILES | pEC50 [1] | Emax [1] | Emax [2] | EC50 [2]
O=C(CCc1ccc(N2C[C@@H]3C[C@H]2C[C@H]3OCc2c(-c3c(F)cccc3Cl)noc2C2CC2)c(F)c1)NS(=O)(=O)C1CCOCC1 [Compound I-235, 3-{4-[(1S,4S,5R)-5-{[3-(2-chloro-6-fluorophenyl)-5-cyclopropyl-1,2-oxazol-4-yl]methoxy}-2-azabicyclo[2.2.1]heptan-2-yl]-3-fluorophenyl}-N-(oxane-4-sulfonyl)propanamide] | 8.2 | 176% | 94% | 3.98 nM
CS(=O)(=O)NC(=O)CCc1ccc(N2C[C@@H]3C[C@H]2C[C@H]3OCc2c(-c3c(Cl)cccc3Cl)noc2C2CC2)c(F)c1 [Compound I-236, 3-(4-((1S,4S,5R)-5-((5-cyclopropyl-3-(2,6-dichlorophenyl)isoxazol-4-yl)methoxy)-2-azabicyclo[2.2.1]heptan-2-yl)-3-fluorophenyl)-N-(methylsulfonyl)propanamide] | 8.4 | 156% | 95% | 2.51 nM
O=C(CCc1ccc(N2C[C@@H]3C[C@H]2C[C@H]3OCc2c(-c3c(Cl)cccc3Cl)noc2C2CC2)c(F)c1)NS(=O)(=O)C1CC1 [Compound I-237, 3-(4-((1S,4S,5R)-5-((5-cyclopropyl-3-(2,6-dichlorophenyl)isoxazol-4-yl)methoxy)-2-azabicyclo[2.2.1]heptan-2-yl)-3-fluorophenyl)-N-(cyclopropylsulfonyl)propanamide] | 8.7 | 162% | 94% | 2.51 nM
O=C(CCc1ccc(N2C[C@@H]3C[C@H]2C[C@H]3OCc2c(-c3c(Cl)cccc3Cl)noc2C2CC2)c(F)c1)NS(=O)(=O)C1CCOCC1 [Compound I-238, 3-(4-((1S,4S,5R)-5-((5-cyclopropyl-3-(2,6-dichlorophenyl)isoxazol-4-yl)methoxy)-2-azabicyclo[2.2.1]heptan-2-yl)-3-fluorophenyl)-N-((tetrahydro-2H-pyran-4-yl)sulfonyl)propanamide] | 8.6 | 176% | 95% | 2.51 nM
CS(=O)(=O)NC(=O)CCc1ccc(N2C[C@@H]3C[C@H]2C[C@H]3OCc2c(-c3c(F)cccc3Cl)noc2C2CC2)c(F)c1 [Compound I-239, 3-(4-((1S,4S,5R)-5-((3-(2-chloro-6-fluorophenyl)-5-cyclopropylisoxazol-4-yl)methoxy)-2-azabicyclo[2.2.1]heptan-2-yl)-3-fluorophenyl)-N-(methylsulfonyl)propanamide] | 8.2 | 176% | 94% | 7.94 nM
O=C(CCc1ccc(N2C[C@@H]3C[C@H]2C[C@H]3OCc2c(-c3c(F)cccc3Cl)noc2C2CC2)c(F)c1)NS(=O)(=O)C1CC1 [Compound I-240, 3-(4-((1S,4S,5R)-5-((3-(2-chloro-6-fluorophenyl)-5-cyclopropylisoxazol-4-yl)methoxy)-2-azabicyclo[2.2.1]heptan-2-yl)-3-fluorophenyl)-N-(cyclopropylsulfonyl)propanamide] | 8.1 | 162% | 92% | 6.31 nM
Cc1cccc(Cl)c1-c1noc(C2CC2)c1CO[C@@H]1C[C@@H]2C[C@H]1CN2c1ccc(CCC(=O)NS(C)(=O)=O)cc1F [Compound I-241, 3-(4-((1S,4S,5R)-5-((3-(2-chloro-6-methylphenyl)-5-cyclopropylisoxazol-4-yl)methoxy)-2-azabicyclo[2.2.1]heptan-2-yl)-3-fluorophenyl)-N-(methylsulfonyl)propanamide] | 8 | 176% | 98% | 10 nM
Cc1cccc(Cl)c1-c1noc(C2CC2)c1CO[C@@H]1C[C@@H]2C[C@H]1CN2c1ccc(CCC(=O)NS(=O)(=O)C2CC2)cc1F [Compound I-242, 3-(4-((1S,4S,5R)-5-((3-(2-chloro-6-methylphenyl)-5-cyclopropylisoxazol-4-yl)methoxy)-2-azabicyclo[2.2.1]heptan-2-yl)-3-fluorophenyl)-N-(cyclopropylsulfonyl)propanamide] | 8.2 | 182% | 97% | 10 nM
Cc1cccc(Cl)c1-c1noc(C2CC2)c1CO[C@@H]1C[C@@H]2C[C@H]1CN2c1ccc(CCC(=O)NS(=O)(=O)C2CCOCC2)cc1F [Compound I-243, 3-(4-((1S,4S,5R)-5-((3-(2-chloro-6-methylphenyl)-5-cyclopropylisoxazol-4-1)methoxy)-2-azabicyclo[2.2.1]heptan-2-yl)-3-fluorophenyl)-N-((tetrahydro-2H-pyran-4-yl)sulfonyl)propanamide] | 8.4 | 182% | 98% | 6.31 nM
O=C(O)c1ccc(N2C(=O)[C@@H]3C[C@H]2C[C@H]3OCc2c(-c3c(Cl)cccc3Cl)noc2C2CC2)cc1 [Compound I-244, 4-[(1S,4R,5R)-5-{[5-cyclopropyl-3-(2,6-dichlorophenyl)-1,2-oxazol-4-yl]methoxy}-3-oxo-2-azabicyclo[2.2.1]heptan-2-yl]benzoic Acid] | 8.4 | 130% | 102% | 2 nM
O=C(O)c1ccc(N2C(=O)[C@@H]3C[C@H]2C[C@@H]3OCc2c(-c3c(Cl)cccc3Cl)noc2C2CC2)cc1 [Compound I-245, 4-[(1S,4R,5S)-5-{[5-cyclopropyl-3-(2,6-dichlorophenyl)-1,2-oxazol-4-yl]methoxy}-3-oxo-2-azabicyclo[2.2.1]heptan-2-yl]benzoic Acid] | >5.5 |  | 0% | < 31.6 nM
CCc1cc(C(=O)O)cc2sc(N3C[C@@H]4C[C@H]3C[C@H]4OCc3c(-c4c(Cl)cccc4Cl)noc3C3CC3)nc12 [Compound I-246, 2-[(1S,4S,5R)-5-{[5-cyclopropyl-3-(2,6-dichlorophenyl)-1,2-oxazol-4-yl]methoxy}-2-azabicyclo[2.2.1]heptan-2-yl]-4-ethyl-1,3-benzothiazole-6-carboxylic Acid] | 8.5 | 136% | 113% | 0.251 nM
CC(C)c1cc(C(=O)O)cc2sc(N3C[C@@H]4C[C@H]3C[C@H]4OCc3c(-c4c(Cl)cccc4Cl)noc3C3CC3)nc12 [Compound I-247, 2-[(1S,4S,5R)-5-{[5-cyclopropyl-3-(2,6-dichlorophenyl)-1,2-oxazol-4-yl]methoxy}-2-azabicyclo[2.2.1]heptan-2-yl]-4-(propan-2-yl)-1,3-benzothiazole-6-carboxylic Acid] | 8.5 | 128% | 114% | 2 nM
CC(C)(C)c1cc(C(=O)O)cc2sc(N3C[C@@H]4C[C@H]3C[C@H]4OCc3c(-c4c(Cl)cccc4Cl)noc3C3CC3)nc12 [Compound I-248, 4-tert-butyl-2-[(1S,4S,5R)-5-{[5-cyclopropyl-3-(2,6-dichlorophenyl)-1,2-oxazol-4-yl]methoxy}-2-azabicyclo[2.2.1]heptan-2-yl]-1,3-benzothiazole-6-carboxylic Acid] | 7.8 | 116% | 112% | 0.631 nM
